# How the values were obtained:
# mTOR = mTOR (Homo sapiens, UniProt P42345); experiment: mTOR inhibition (Table 1); type: biochemical; details: Table 1, no method described
# PI3Kα = PI3Kα (Homo sapiens, UniProt P42336); experiment: ELISA assay for PI3Kα: in-cell ELISA, phosphorylation of AKT (Thr308) in MDA-MB-453 cells; type: cell-based; details: cellular, pAKT (Thr308), IGF-1 stimulation, read-out: IC50 p110α
# Protocol: PI3K alpha (PI3Kα) activity was determined by measuring the phosphorylation of AKT (Thr308) using an in-cell ELISA assay. MDA-MB-453 (breast carcinoma) cells were obtained from ATCC (ATCC #HTB-131). Growth medium was DMEM (CellGro #CV-10-013-CV) supplemented with 10% fetal bovine serum, 100 IU/mL penicillin, 100 μg/mL streptomycin, and 1×MEM non-essential amino acids. Phosphate buffered saline (PBS) contained 2.7 M NaCl, 54 mM KCl, 86 mM […] (dibasic, anhydrous), and 28 mM […] (monobasic, anhydrous) at pH 7.2. Stimulation mixture (10×) was 1000 ng/mL LONG® R^3 human IGF-1 (Sigma #I1271) diluted in serum-free DMEM medium (CellGro #CV-10-013-CV). Compounds for testing were dissolved and serially diluted in 100% DMSO (total of 10 concentrations), then diluted in serum-free DMEM to 2× final assay concentration. Fixative solution (2×) was 8% formaldehyde (Amresco #M134) diluted in PBS. Permeabilization solution was PBS supplemented with 0.1% Triton X-100. Blocking buffer was obtained from LiCor (LiCor #927-40000). Wash buffer was PBS supplemented with 0.1% Tween-20. Primary antibody solution was rabbit anti-pAKT^T308 monoclonal antibody (Cell Signaling #2965) and mouse anti-total S6 (Santa Cruz #74459) diluted 1:500 and 1:2000, respectively, in the blocking buffer. Secondary antibody solution was IRDye 800CW-conjugated goat anti-rabbit IgG (LiCor #926-32211) and IRDye 680LT-conjugated goat anti-mouse IgG (LiCor #926-68020) diluted 1:1000 and 1:2000, respectively, in the blocking buffer.
# MDA-MB-453 cells were subcultured in growth medium and seeded into flat, clear bottom, 96-well plates (Corning #3904) at 40000 cells/well, then incubated overnight in a 5% CO2 incubator at 37° C. Growth medium in plates was replaced with 100 μL/well serum-free DMEM and incubated overnight at 37° C. in a 5% CO2 incubator. Fresh serum-free DMEM (50 μL/well) was added to plates. Compound treatment was performed by adding 50 μL/well of 2× compound mixture to plates and incubating for 1 hr at 37° C. and 5% CO2, after which 11 μL/well of 10× stimulation mixture was added and plates were incubated for 10 min at 37° C. and 5% CO2. Fixation was performed by adding 110 μL/well of 2× fixative solution to the plates and incubating for 20 min at room temperature. Permeabilization was performed by replacing fixation solution with 150 μL/well permeabilization solution and incubating for 10 min at room temperature. Permeabilization was repeated (for a total of 2 times). Permeabilization solution was replaced with 100 μL/well blocking buffer and plates were incubated for 1 hour at room temperature, after which 100 μL/well of primary antibody solution was added and plates were incubated overnight at 4° C. Plates were washed with wash buffer, after which 100 μL/well of secondary antibody solution was added to the plates and incubated in the dark for 1 hr at room temperature. Plates were washed with wash buffer, followed by a wash with PBS. After completely removing PBS, plates were scanned on the Licor Odyssey Imager. Images were quantified using Licor Odyssey application software. IC50 values were determined by curve fitting using a Collaborative Drug Discovery database (www.collaborativedrug.com).
# PI3Kδ = target: T1, PI3Kδ (Homo sapiens, UniProt O00329); experiment: ELISA assay for PI3Kδ: sandwich ELISA, phosphorylation of AKT (Thr308) in Raji cells; type: cell-based; details: for IC50: cellular, pAKT (Thr308), Raji cells, anti-Human IgM stimulation, read-out: IC50 p110δ; for α/δ ratio / β/δ ratio / γ/δ ratio: ratio of cellular IC50 values, Table 2
# T1 construct: endogenous in cells; host or cells: Raji (ATCC #CCL-86)
# Protocol: Cellular PI3Kδ activity was determined by measuring the phosphorylation of AKT (Thr308) using a sandwich enzyme-linked immunosorbant assay (ELISA). Raji (Burkitt's Lymphoma) cells were obtained from ATCC (ATCC #CCL-86). Phosphate buffer saline (PBS) contained 2.7 M NaCl, 54 mM KCl, 86 mM […] (dibasic, anhydrous), and 28 mM […] (monobasic, anhydrous) at pH 7.2. Wash buffer contained PBS supplemented with 0.05% Tween-20. Blocking buffer contained wash buffer supplemented with 1% BSA. A 10× stimulation mixture contained 5 μg/mL anti-Human IgM antibody (Sigma #12386) diluted in serum-free RPMI medium (CellGro #CV-10-040-CV). Compounds for testing were dissolved and serially diluted in 100% DMSO (total of 10 concentrations), and then diluted in serum-free RPMI to 5×final assay concentration.
# Raji cells were subcultured in RPMI medium supplemented with 10% fetal bovine serum, 100 IU/mL penicillin, 100 μg/mL streptomycin, and 1×MEM non-essential amino acids. Sandwich ELISA plates were prepared by coating 96-well assay plates (Pierce #15042) with 100 μL/well capture antibody (Cell Signaling Technology #7142 or 7144) diluted in PBS. Plates were incubated overnight at 4° C., then washed with wash buffer, after which 200 μL/well blocking buffer was added to the plates and incubated at room temperature for at least 2 hrs. Raji cells were resuspended in serum-free RPMI medium and seeded into V-bottom, 2-mL 96-well blocks (Corning #3961) at 10^6 cells/well, then incubated for 2 hrs in a 37° C., 5% CO2 incubator. Compound treatment was performed by adding the 5× compound mixture to the cells and incubating for 2 hrs at 37° C., 5% CO2, after which the 10× stimulation mixture was added to the plates and incubated for 30 min at 37° C., 5% CO2. Cells were pelleted by centrifuging plates at 1500 RPM for 5 min at room temperature. Media was carefully removed and cells were lysed by adding 100 μL/well cell lysis buffer (Cell Signaling Technology #9803) supplemented with protease and phosphatase inhibitors (Thermo Fisher #78443). Plates were incubated on ice for 30 min, then the lysates (80 μL for pAKT^T308, 10 μL for total AKT) were transferred to prepared assay plates and incubated at 4° C. overnight. After washing plates with wash buffer, 100 μL/well detection antibody (Cell Signaling Technology #7142 or 7144) diluted in blocking buffer was added to the plates and incubated for 1 hr at 37° C. Plates were washed and 100 μL/well of HRP-conjugated secondary antibody (Cell Signaling Technology #7142 or 7144) diluted in blocking buffer was added to plates and incubated for 1 hr at room temperature. Plates were washed with wash buffer and 100 μL/well of luminescent substrate was added to plates. After 1 min on a plate shaker at medium speed, luminescence was read on a Wallac Victor2 plate reader. IC50 values were determined by curve fitting using a Collaborative Drug Discovery database (www.collaborativedrug.com).
# T1 sequence (O00329 whole entry): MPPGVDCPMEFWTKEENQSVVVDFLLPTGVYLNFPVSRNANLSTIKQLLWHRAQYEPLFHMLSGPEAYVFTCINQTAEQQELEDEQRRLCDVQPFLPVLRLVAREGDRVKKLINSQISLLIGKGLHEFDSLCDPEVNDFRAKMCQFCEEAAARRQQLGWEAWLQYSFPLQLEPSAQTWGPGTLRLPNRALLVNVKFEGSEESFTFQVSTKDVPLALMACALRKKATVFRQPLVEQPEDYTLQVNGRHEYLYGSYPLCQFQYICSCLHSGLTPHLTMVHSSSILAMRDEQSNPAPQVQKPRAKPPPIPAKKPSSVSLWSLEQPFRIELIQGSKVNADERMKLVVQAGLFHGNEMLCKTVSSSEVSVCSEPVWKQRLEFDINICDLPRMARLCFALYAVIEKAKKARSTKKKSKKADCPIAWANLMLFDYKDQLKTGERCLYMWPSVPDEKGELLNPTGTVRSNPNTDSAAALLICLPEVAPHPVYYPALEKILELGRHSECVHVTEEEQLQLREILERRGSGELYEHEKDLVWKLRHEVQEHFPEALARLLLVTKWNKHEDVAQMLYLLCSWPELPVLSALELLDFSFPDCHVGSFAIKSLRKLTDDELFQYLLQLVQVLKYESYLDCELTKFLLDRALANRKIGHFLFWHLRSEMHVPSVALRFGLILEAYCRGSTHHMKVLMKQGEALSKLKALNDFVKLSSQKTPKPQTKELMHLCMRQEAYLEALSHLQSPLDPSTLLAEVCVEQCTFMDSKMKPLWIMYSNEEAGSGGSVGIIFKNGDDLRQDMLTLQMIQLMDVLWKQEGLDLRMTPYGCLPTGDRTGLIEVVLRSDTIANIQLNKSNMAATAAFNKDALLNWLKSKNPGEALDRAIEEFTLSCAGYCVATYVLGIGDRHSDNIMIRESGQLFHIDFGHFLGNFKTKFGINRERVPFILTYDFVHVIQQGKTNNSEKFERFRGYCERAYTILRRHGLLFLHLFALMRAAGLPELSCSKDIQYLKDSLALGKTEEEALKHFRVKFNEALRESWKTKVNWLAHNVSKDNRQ
# T1 sequence (P27986 whole entry partner): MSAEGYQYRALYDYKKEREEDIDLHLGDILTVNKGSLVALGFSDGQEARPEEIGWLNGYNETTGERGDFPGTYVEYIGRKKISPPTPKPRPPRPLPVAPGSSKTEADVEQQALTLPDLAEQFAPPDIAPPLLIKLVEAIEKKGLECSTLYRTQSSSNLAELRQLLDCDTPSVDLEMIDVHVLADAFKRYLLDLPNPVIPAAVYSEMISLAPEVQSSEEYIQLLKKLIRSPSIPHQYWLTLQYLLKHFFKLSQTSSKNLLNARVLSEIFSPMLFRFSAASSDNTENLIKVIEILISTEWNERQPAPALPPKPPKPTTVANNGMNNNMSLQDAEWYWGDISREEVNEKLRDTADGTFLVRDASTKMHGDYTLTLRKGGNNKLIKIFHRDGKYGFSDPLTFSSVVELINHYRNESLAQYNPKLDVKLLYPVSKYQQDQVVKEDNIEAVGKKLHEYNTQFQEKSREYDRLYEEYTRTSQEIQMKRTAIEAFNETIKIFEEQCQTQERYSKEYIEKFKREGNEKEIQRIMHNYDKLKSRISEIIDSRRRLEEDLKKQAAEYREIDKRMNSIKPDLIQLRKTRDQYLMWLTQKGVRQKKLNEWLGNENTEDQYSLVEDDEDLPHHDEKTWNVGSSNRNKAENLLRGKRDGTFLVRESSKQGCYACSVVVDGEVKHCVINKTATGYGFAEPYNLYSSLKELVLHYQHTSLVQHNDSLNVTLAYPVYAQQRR
# PI3Kα, sequence (P27986 2-724): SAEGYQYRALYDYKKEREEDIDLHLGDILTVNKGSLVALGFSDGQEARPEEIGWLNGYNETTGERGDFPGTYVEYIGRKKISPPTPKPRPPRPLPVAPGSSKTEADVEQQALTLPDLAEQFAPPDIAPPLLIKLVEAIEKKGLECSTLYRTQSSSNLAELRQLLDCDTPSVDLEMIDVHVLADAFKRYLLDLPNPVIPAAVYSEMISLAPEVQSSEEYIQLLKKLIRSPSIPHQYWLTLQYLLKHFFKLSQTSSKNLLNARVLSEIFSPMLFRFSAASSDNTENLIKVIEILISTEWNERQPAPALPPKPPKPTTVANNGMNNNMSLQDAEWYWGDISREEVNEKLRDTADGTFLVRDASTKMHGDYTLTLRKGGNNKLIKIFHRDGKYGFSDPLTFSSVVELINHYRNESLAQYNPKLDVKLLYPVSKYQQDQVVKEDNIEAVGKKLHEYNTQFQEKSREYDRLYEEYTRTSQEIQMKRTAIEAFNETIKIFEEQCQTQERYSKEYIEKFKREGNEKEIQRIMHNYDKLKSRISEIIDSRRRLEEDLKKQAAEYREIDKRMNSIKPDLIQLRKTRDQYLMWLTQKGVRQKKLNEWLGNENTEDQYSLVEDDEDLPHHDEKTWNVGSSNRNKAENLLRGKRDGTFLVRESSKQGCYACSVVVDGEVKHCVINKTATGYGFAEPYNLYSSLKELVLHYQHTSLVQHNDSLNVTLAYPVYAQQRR
# PI3Kα, sequence (P42336 whole entry): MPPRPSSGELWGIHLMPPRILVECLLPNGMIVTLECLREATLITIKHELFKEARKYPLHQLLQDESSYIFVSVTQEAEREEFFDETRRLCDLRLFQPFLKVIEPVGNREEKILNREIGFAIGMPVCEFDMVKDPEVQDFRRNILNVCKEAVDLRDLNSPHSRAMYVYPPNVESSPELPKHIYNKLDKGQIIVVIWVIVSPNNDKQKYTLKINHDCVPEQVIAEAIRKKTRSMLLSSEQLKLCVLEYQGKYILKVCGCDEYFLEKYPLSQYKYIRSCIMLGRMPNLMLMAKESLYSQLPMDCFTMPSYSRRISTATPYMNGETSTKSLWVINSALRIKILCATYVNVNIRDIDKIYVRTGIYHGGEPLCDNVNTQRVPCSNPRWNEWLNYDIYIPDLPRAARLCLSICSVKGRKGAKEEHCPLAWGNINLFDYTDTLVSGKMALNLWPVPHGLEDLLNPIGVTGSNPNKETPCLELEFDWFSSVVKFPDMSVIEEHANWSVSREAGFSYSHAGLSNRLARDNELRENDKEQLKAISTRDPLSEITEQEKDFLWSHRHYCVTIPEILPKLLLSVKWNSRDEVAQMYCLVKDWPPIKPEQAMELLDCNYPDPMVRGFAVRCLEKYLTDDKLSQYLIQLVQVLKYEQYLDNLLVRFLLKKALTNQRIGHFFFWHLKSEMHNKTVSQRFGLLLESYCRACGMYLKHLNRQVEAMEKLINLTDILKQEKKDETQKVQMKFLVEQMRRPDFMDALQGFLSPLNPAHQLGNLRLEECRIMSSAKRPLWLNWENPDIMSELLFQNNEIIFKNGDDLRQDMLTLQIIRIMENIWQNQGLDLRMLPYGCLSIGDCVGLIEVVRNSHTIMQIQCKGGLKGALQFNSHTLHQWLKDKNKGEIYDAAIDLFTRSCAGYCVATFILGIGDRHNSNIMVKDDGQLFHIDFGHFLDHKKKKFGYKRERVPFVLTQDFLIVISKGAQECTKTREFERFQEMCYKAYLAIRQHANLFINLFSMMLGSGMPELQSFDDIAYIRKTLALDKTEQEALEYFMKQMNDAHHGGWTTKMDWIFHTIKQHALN
IC50 (mTOR),IC50 (PI3Kα),IC50 (PI3Kδ),α/δ ratio (PI3Kδ),β/δ ratio (PI3Kδ),γ/δ ratio (PI3Kδ),SMILES
> 500 nM,> 500 nM,≤ 100 nM,A’,A’,A’,"Cc1ccccc1CC(C)(C)Nc1nc(N2CCOCC2)nc(-n2c(C(F)F)nc3ccccc32)n1 [Compound A18, 4-(2-(difluoromethyl)-1H-benzo[d]imidazol-1-yl)-N-(2-methyl-1-(o-tolyl)propan-2-yl)-6-morpholino-1,3,5-triazin-2-amine]"
> 500 nM,> 500 nM,≤ 100 nM,A’,A’,A’,"Cc1ccccc1-c1ccccc1CC(C)(C)Nc1nc(N2CCOCC2)nc(-n2c(C(F)F)nc3ccccc32)n1 [Compound A60, 4-(2-(difluoromethyl)-1H-benzo[d]imidazol-1-yl)-N-(2-methyl-1-(2′-methylbiphenyl-2-yl)propan-2-yl)-6-morpholino-1,3,5-triazin-2-amine]"
> 500 nM,> 500 nM,≤ 100 nM,A’,B’,A’,"Cc1cccc(CC(C)(C)Nc2nc(N3CCOCC3)nc(-n3c(C(F)F)nc4ccccc43)n2)c1 [Compound A49, 4-(2-(difluoromethyl)-1H-benzo[d]imidazol-1-yl)-N-(2-methyl-1-m-tolylpropan-2-yl)-6-morpholino-1,3,5-triazin-2-amine]"
> 500 nM,200 to 500 nM,≤ 100 nM,A’,B’,A’,"Cn1cc(-c2ccccc2CC(C)(C)Nc2nc(N3CCOCC3)nc(-n3c(C(F)F)nc4ccccc43)n2)cn1 [Compound A45, 4-(2-(difluoromethyl)-1H-benzo[d]imidazol-1-yl)-N-(2-methyl-1-(2-(1-methyl-1H-pyrazol-4-yl)phenyl)propan-2-yl)-6-morpholino-1,3,5-triazin-2-amine]"

# The next lines start with the molecule.
SMILES,IC50 (mTOR),IC50 (PI3Kα),IC50 (PI3Kδ),α/δ ratio (PI3Kδ),β/δ ratio (PI3Kδ),γ/δ ratio (PI3Kδ)
"CC(C)(Cc1ccccc1C1CCNCC1)Nc1nc(N2CCOCC2)nc(-n2c(C(F)F)nc3ccccc32)n1 [Compound A68, 4-(2-(difluoromethyl)-1H-benzo[d]imidazol-1-yl)-N-(2-methyl-1-(2-(piperidin-4-yl)phenyl)propan-2-yl)-6-morpholino-1,3,5-triazin-2-amine]",> 500 nM,> 500 nM,≤ 100 nM,A’,A’,A’
"CC(C)(Cc1ccccc1-c1ccccc1Cl)Nc1nc(N2CCOCC2)nc(-n2c(C(F)F)nc3ccccc32)n1 [Compound A61, 4-(2-(difluoromethyl)-1H-benzo[d]imidazol-1-yl)-N-(1-(6′-chlorobiphenyl-2-yl)-2-methylpropan-2-yl)-6-morpholino-1,3,5-triazin-2-amine]",> 500 nM,> 500 nM,≤ 100 nM,A’,A’,A’
"CCN1CCC(c2ccccc2CC(C)(C)Nc2nc(N3CCOCC3)nc(-n3c(C(F)F)nc4ccccc43)n2)CC1 [Compound A70, 4-(2-(difluoromethyl)-1H-benzo[d]imidazol-1-yl)-N-(1-(2-(1-ethylpiperidin-4-yl)phenyl)-2-methylpropan-2-yl)-6-morpholino-1,3,5-triazin-2-amine]",> 500 nM,> 500 nM,≤ 100 nM,A’,A’,A’
"CC(C)(Cc1ccccc1-c1cccnc1)Nc1nc(N2CCOCC2)nc(-n2c(C(F)F)nc3ccccc32)n1 [Compound A40, 4-(2-(difluoromethyl)-1H-benzo[d]imidazol-1-yl)-N-(2-methyl-1-(2-(pyridin-3-yl)phenyl)propan-2-yl)-6-morpholino-1,3,5-triazin-2-amine]",> 500 nM,> 500 nM,≤ 100 nM,A’,A’,A’

# From patent US12059422B2 (MEI Pharma, Inc., priority 2011, dated 2024)
